Measurements as given in ChEMBL document CHEMBL5143734, “Seco-Lupane Triterpene Derivatives Induce Ferroptosis through GPX4/ACSL4 Axis and Target Cyclin D1 to Block the Cell Cycle” (J Med Chem, 2022).

Columns and labels:
Type in all cases: functional, cell-based
MCF7 = assay: Cytotoxicity against human MCF7 cells assessed as reduction in cell viability by CCK-8 assay
A549 = assay: Cytotoxicity against human A549 cells assessed as reduction in cell viability by CCK-8 assay
HepG2 = assay: Cytotoxicity against human HepG2 cells assessed as reduction in cell viability by CCK-8 assay
PC-3M = assay: Cytotoxicity against human PC-3M cells assessed as reduction in cell viability by CCK-8 assay
PANC-1 = assay: Cytotoxicity against human PANC-1 cells assessed as reduction in cell viability by CCK-8 assay

C=C(C)[C@@H]1CC[C@]2(C(=O)OCCCCCCCCCCn3ccnc3C)CC[C@]3(C)[C@H](C[C@@H](O)[C@@H]4[C@@]5(C)C(CC(=O)OC)OC(C)(C)C5CC[C@]43C)[C@@H]12 (stereo not given in full)
IC50 (MCF7): 19.4 µM
IC50 (A549): 19.5 µM
IC50 (HepG2): 4.91 µM
IC50 (PC-3M): 10.3 µM
IC50 (PANC-1): 7.95 µM

C=C(C)[C@@H]1CC[C@]2(C(=O)OCCCCCCn3ccnc3C)CC[C@]3(C)[C@H](C[C@H]4OC(=O)C[C@@H](O)[C@]5(C)[C@@H]4[C@@]3(C)CC[C@H]5C(=C)C)[C@@H]12
IC50 (MCF7): 76.2 µM
IC50 (A549): 18.9 µM
IC50 (HepG2): 12.9 µM
IC50 (PC-3M): 14 µM
IC50 (PANC-1): 17.9 µM

C=C(C)[C@@H]1CC[C@]2(C(=O)OCCCCn3cncn3)CC[C@]3(C)[C@H](C[C@@H](O)[C@@H]4[C@@]5(C)C(CC(=O)OC)OC(C)(C)C5CC[C@]43C)[C@@H]12 (stereo not given in full)
IC50 (MCF7): 75.2 µM
IC50 (A549): 42.4 µM
IC50 (HepG2): 26.1 µM
IC50 (PC-3M): 45.3 µM
IC50 (PANC-1): 58.6 µM

C=C(C)[C@@H]1CC[C@]2(C(=O)OCCCCCBr)CC[C@]3(C)[C@H](C[C@H]4OC(=O)C[C@@H](O)[C@]5(C)[C@@H]4[C@@]3(C)CC[C@H]5C(=C)C)[C@@H]12
IC50 (MCF7): 56.1 µM
IC50 (A549): 19.8 µM
IC50 (HepG2): 14.3 µM
IC50 (PC-3M): 14.5 µM
IC50 (PANC-1): 43.1 µM

C=C(C)[C@@H]1CC[C@]2(C(=O)OCCCCCCCCCCn3cc(CCN)c4ccccc43)CC[C@]3(C)[C@H](C[C@H]4OC(=O)C[C@@H](O)[C@]5(C)[C@@H]4[C@@]3(C)CC[C@H]5C(=C)C)[C@@H]12
IC50 (MCF7): 5.48 µM
IC50 (A549): 6.59 µM
IC50 (HepG2): 1.68 µM
IC50 (PC-3M): 5.69 µM
IC50 (PANC-1): 5.59 µM

C=C(C)[C@@H]1CC[C@]2(C(=O)OCCCCCn3cncn3)CC[C@]3(C)[C@H](C[C@H]4OC(=O)C[C@@H](O)[C@]5(C)[C@@H]4[C@@]3(C)CC[C@H]5C(=C)C)[C@@H]12
IC50 (MCF7): 108 µM
IC50 (A549): 18.7 µM
IC50 (HepG2): 38.3 µM
IC50 (PC-3M): 54.3 µM
IC50 (PANC-1): 41.6 µM

C=C(C)[C@@H]1CC[C@]2(C(=O)OCCCCCCCCCCn3ccnc3)CC[C@]3(C)[C@H](C[C@@H](O)[C@@H]4[C@@]5(C)C(CC(=O)OC)OC(C)(C)C5CC[C@]43C)[C@@H]12 (stereo not given in full)
IC50 (MCF7): 36.1 µM
IC50 (A549): 22.4 µM
IC50 (HepG2): 6.83 µM
IC50 (PC-3M): 14 µM
IC50 (PANC-1): 14 µM

C=C(C)[C@@H]1CC[C@]2(C(=O)OCCCCn3cnc(C)c3)CC[C@]3(C)[C@H](C[C@@H](O)[C@@H]4[C@@]5(C)C(CC(=O)OC)OC(C)(C)C5CC[C@]43C)[C@@H]12 (stereo not given in full)
IC50 (MCF7): 65.6 µM
IC50 (A549): 35.4 µM
IC50 (HepG2): 19.9 µM
IC50 (PC-3M): 25 µM
IC50 (PANC-1): 38.9 µM

C=C(C)[C@@H]1CC[C@]2(C(=O)OCCCCCn3ccnc3)CC[C@]3(C)[C@H](C[C@H]4OC(=O)C[C@@H](O)[C@]5(C)[C@@H]4[C@@]3(C)CC[C@H]5C(=C)C)[C@@H]12
IC50 (MCF7): 45.6 µM
IC50 (A549): 25.2 µM
IC50 (HepG2): 16.1 µM
IC50 (PC-3M): 11.8 µM
IC50 (PANC-1): 32.3 µM

C=C(C)[C@@H]1CC[C@]2(C(=O)OCCCCCn3cncn3)CC[C@]3(C)[C@H](C[C@@H](O)[C@@H]4[C@@]5(C)C(CC(=O)OC)OC(C)(C)C5CC[C@]43C)[C@@H]12 (stereo not given in full)
IC50 (MCF7): 81.6 µM
IC50 (A549): 57.9 µM
IC50 (HepG2): 37.2 µM
IC50 (PC-3M): 32.3 µM
IC50 (PANC-1): 90 µM

C=C(C)[C@@H]1CC[C@]2(C(=O)OCCCCCCn3ccnc3CC)CC[C@]3(C)[C@H](C[C@H]4OC(=O)C[C@@H](O)[C@]5(C)[C@@H]4[C@@]3(C)CC[C@H]5C(=C)C)[C@@H]12
IC50 (MCF7): 48.8 µM
IC50 (A549): 14.6 µM
IC50 (HepG2): 3.59 µM
IC50 (PC-3M): 12.9 µM
IC50 (PANC-1): 17.5 µM

C=C(C)[C@@H]1CC[C@]2(C(=O)OCCCCCCn3cncn3)CC[C@]3(C)[C@H](C[C@@H](O)[C@@H]4[C@@]5(C)C(CC(=O)OC)OC(C)(C)C5CC[C@]43C)[C@@H]12 (stereo not given in full)
IC50 (MCF7): 79.9 µM
IC50 (A549): 52.7 µM
IC50 (HepG2): 37.8 µM
IC50 (PC-3M): 27.4 µM
IC50 (PANC-1): 59.8 µM

C=C(C)[C@@H]1CC[C@]2(C(=O)OCCCCCCn3cncn3)CC[C@]3(C)[C@H](C[C@H]4OC(=O)C[C@@H](O)[C@]5(C)[C@@H]4[C@@]3(C)CC[C@H]5C(=C)C)[C@@H]12
IC50 (MCF7): 103 µM
IC50 (A549): 24.6 µM
IC50 (HepG2): 23.8 µM
IC50 (PC-3M): 56 µM
IC50 (PANC-1): 19.5 µM

C=C(C)[C@@H]1CC[C@]2(C(=O)OCCCBr)CC[C@]3(C)[C@H](C[C@@H](O)[C@@H]4[C@@]5(C)C(CC(=O)OC)OC(C)(C)C5CC[C@]43C)[C@@H]12 (stereo not given in full)
IC50 (MCF7): 98.8 µM
IC50 (A549): 41.2 µM
IC50 (HepG2): 28.6 µM
IC50 (PC-3M): 47.6 µM
IC50 (PANC-1): 70.7 µM

C=C(C)[C@@H]1CC[C@]2(C(=O)OCCCCn3ccnc3CC)CC[C@]3(C)[C@H](C[C@@H](O)[C@@H]4[C@@]5(C)C(CC(=O)OC)OC(C)(C)C5CC[C@]43C)[C@@H]12 (stereo not given in full)
IC50 (MCF7): 40.3 µM
IC50 (A549): 28.5 µM
IC50 (HepG2): 15.7 µM
IC50 (PC-3M): 25.9 µM
IC50 (PANC-1): 31.5 µM

C=C(C)[C@@H]1CC[C@]2(C(=O)OCCCCCn3cnc(C)c3)CC[C@]3(C)[C@H](C[C@@H](O)[C@@H]4[C@@]5(C)C(CC(=O)OC)OC(C)(C)C5CC[C@]43C)[C@@H]12 (stereo not given in full)
IC50 (MCF7): 60.8 µM
IC50 (A549): 28.5 µM
IC50 (HepG2): 14.1 µM
IC50 (PC-3M): 30.1 µM
IC50 (PANC-1): 33.2 µM

C=C(C)[C@@H]1CC[C@]2(C(=O)OCCCCCCBr)CC[C@]3(C)[C@H](C[C@@H](O)[C@@H]4[C@@]5(C)C(CC(=O)OC)OC(C)(C)C5CC[C@]43C)[C@@H]12 (stereo not given in full)
IC50 (MCF7): 73 µM
IC50 (A549): 45.5 µM
IC50 (HepG2): 22.2 µM
IC50 (PC-3M): 29 µM
IC50 (PANC-1): 37.5 µM

C=C(C)[C@@H]1CC[C@]2(C(=O)OCCCn3cncn3)CC[C@]3(C)[C@H](C[C@@H](O)[C@@H]4[C@@]5(C)C(CC(=O)OC)OC(C)(C)C5CC[C@]43C)[C@@H]12 (stereo not given in full)
IC50 (MCF7): 81.6 µM
IC50 (A549): 31.3 µM
IC50 (HepG2): 29.2 µM
IC50 (PC-3M): 43.2 µM
IC50 (PANC-1): 57 µM

C=C(C)[C@@H]1CC[C@]2(C(=O)OCCCCCn3ccnc3CC)CC[C@]3(C)[C@H](C[C@@H](O)[C@@H]4[C@@]5(C)C(CC(=O)OC)OC(C)(C)C5CC[C@]43C)[C@@H]12 (stereo not given in full)
IC50 (MCF7): 45.5 µM
IC50 (A549): 25.9 µM
IC50 (HepG2): 14.1 µM
IC50 (PC-3M): 23.9 µM
IC50 (PANC-1): 26.8 µM

C=C(C)[C@@H]1CC[C@]2(C(=O)OCCCCn3cc(CCN)c4ccccc43)CC[C@]3(C)[C@H](C[C@H]4OC(=O)C[C@@H](O)[C@]5(C)[C@@H]4[C@@]3(C)CC[C@H]5C(=C)C)[C@@H]12
IC50 (MCF7): 11.7 µM
IC50 (A549): 6.72 µM
IC50 (HepG2): 1.02 µM
IC50 (PC-3M): 6.64 µM
IC50 (PANC-1): 8.73 µM

C=C(C)[C@@H]1CC[C@]2(C(=O)OCCCn3cc(CCN)c4ccccc43)CC[C@]3(C)[C@H](C[C@H]4OC(=O)C[C@@H](O)[C@]5(C)[C@@H]4[C@@]3(C)CC[C@H]5C(=C)C)[C@@H]12
IC50 (MCF7): 11.8 µM
IC50 (A549): 7.21 µM
IC50 (HepG2): 1.78 µM
IC50 (PC-3M): 6.28 µM
IC50 (PANC-1): 9.59 µM

C=C(C)[C@@H]1CC[C@]2(C(=O)OCCCn3cc(CCN)c4ccccc43)CC[C@]3(C)[C@H](C[C@@H](O)[C@@H]4[C@@]5(C)C(CC(=O)OC)OC(C)(C)C5CC[C@]43C)[C@@H]12 (stereo not given in full)
IC50 (MCF7): 8.05 µM
IC50 (A549): 7.67 µM
IC50 (HepG2): 2.51 µM
IC50 (PC-3M): 7.6 µM
IC50 (PANC-1): 7.04 µM
